Where a name gives a salt, the structure may show the parent alone.
Key:
[1] = Experimentally derived Δlog P by shake flask method (OECD No. 107 and 117); type: physicochemical; conditions: difference of log P(o/w) and log P(cyclohexane/water)
[2] = in vivo; conditions: both, New Zealand albino, rabbit; for AUC / Cmax / Tmax: topical or ocular
Experimental: In both groups, individual fluoroquinolones were dissolved at concentration of 0.1%. Thus, the total fluoroquinolones concentration in group A and group B were 0.4% and 0.5%, respectively. Sterile boric acid (1.9% w/v) in water was used as the aqueous media and the final formulations were filtered using 0.22 μ filter and autoclaved further before use.
Study protocol and experimental procedures were approved by the Institutional Animal Ethics Committee of All India Institute of Medical Sciences (AIIMS), New Delhi, India. New Zealand albino rabbits of either sex (1.5–2.0 kg) were obtained from Central Animal Facility, AIIMS. Animals were housed at standard laboratory conditions temperature-controlled room at 24 ± 2°C and humidity 55 ± 15% and given food and water ad libitum. All experiments were performed in accordance to the Association for Research in Vision and Ophthalmology (ARVO) statement for the use of animals in ophthalmic and vision research.
The sterile cocktail formulations of group A and group B were individually instilled (50 μL) on the lower fornix of rabbit eyes (n = 4) with the help of a calibrated micropipette. […] For each time point, a volume amounting to 50 μL of aqueous humor was aspirated through the corneal surface. The aqueous humor samples obtained were stored at −80°C until quantification by HPLC.
A Thermo Finnigan (Thermo Electron Corporation, USA) HPLC equipped with degasser, quaternary pump, autosampler, and PDA detector was employed for quantification of fluoroquinolones in samples. In the chromatographic quantification, analytical separation was performed using a C18 Symmetry Shield column (4.6 × 150 mm, 5 μm, Waters, USA) under a gradient flow of methanol, acetonitrile, and potassium phosphate buffer (20 mM, pH 2.5) at different ratio and time. For each spiked compound an external calibration curve was plotted and the analyte's spectra was assessed by matching them with custom made PDA spectra of inbuilt library of Chromquest version 4 (Thermo Electron Corporation, USA).
The dried concentrate was reconstituted with 100 μL mixture of water and acetonitrile (1 : 1), and 20 μL of the obtained supernatant was injected for quantification.
In Vivo Data Permeability coefficients (logPC) were obtained from controlled in vivo experiment conducted in rabbits using cassette dosing (N-in-One) approach.

ΔlogP (Cyclohexane-Octanol) [1]	logPC (30 min) [2]	logPC (240 min) [2]	AUC [2] [ng·h/mL]	Cmax [2] [ng/mL]	Tmax [2] [h]	Compound
0.734					1	C[C@H]1COc2c(N3CCN(C)CC3)c(F)cc3c(=O)c(C(=O)O)cn1c23 [Levofloxacin]
1.025	−4.753	−6.396	1770	1150 ± 514	0.5	C[C@@H]1CN(c2c(F)c(N)c3c(=O)c(C(=O)O)cn(C4CC4)c3c2F)C[C@H](C)N1 [Sparfloxacin]

The remaining lines, values behind:

Compound	ΔlogP (Cyclohexane-Octanol) [1]	logPC (30 min) [2]	logPC (240 min) [2]	AUC [2] [ng·h/mL]	Cmax [2] [ng/mL]	Tmax [2] [h]
CCn1cc(C(=O)O)c(=O)c2cc(F)c(N3CCNCC3)cc21 [Norfloxacin]	0.051	−5.051	−6.382	2850	456 ± 59	1
COc1c(N2C[C@@H]3CCCN[C@@H]3C2)c(F)cc2c(=O)c(C(=O)O)cn(C3CC3)c12 [Moxifloxacin]				1040	594 ± 294	0.5
CC1COc2c(N3CCN(C)CC3)c(F)cc3c(=O)c(C(=O)O)cn1c23 (stereo not shown) [Ofloxacin]	0.759					1
COc1c(N2CCNC(C)C2)c(F)cc2c(=O)c(C(=O)O)cn(C3CC3)c12 (stereo not shown) [Gatifloxacin]	0.526	−5.006	−6.628	1180	682 ± 904	0.5
CCn1cc(C(=O)O)c(=O)c2cc(F)c(N3CCNC(C)C3)c(F)c21 (stereo not shown) [Lomefloxacin HCl, Lomefloxacin]	1.113	−5.519	−6.859	833	266 ± 46	1

— article PMC3043298, “Development of Novel In Silico Model to Predict Corneal Permeability for Congeneric Drugs: A QSPR Approach” (Journal of Biomedicine and Biotechnology, 2011)
